Results as given in paper PMC7774954, “Interactomic affinity profiling by holdup assay: Acetylation and distal residues impact the PDZome-binding specificity of PTEN phosphatase” (PLoS ONE, 2020).
*1 amine or outer side, *2 acyl side, *3 side chain or, on linkers, in order; H or OH if unused. Where a SMILES comes first, the peptide text is derived from it. The star is where a group is joined. X1 = O=C(CCCC[C@@H]1SC[C@@H]2NC(=O)N[C@@H]21)NCCCOCCOCCOCCCN*; Suc = O=C(CCC(=O)[*:2])[*:1]

Legend:
MAGI1-5 = MAGI1-5 (Homo sapiens, UniProt Q96QZ7); test: Holdup assay, MAGI1-5; format: binding
Sequence of MAGI1-5 (Q96QZ7 970-1066): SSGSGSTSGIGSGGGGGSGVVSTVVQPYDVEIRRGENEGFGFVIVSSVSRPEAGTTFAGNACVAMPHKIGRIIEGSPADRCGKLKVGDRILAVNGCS

MAGI3-4 = test: Holdup assay, MAGI3-4; format: binding, human
DLG1-3 = test: Holdup assay, DLG1-3; format: binding, human
IL16-2 = test: Holdup assay, IL16-2; format: binding, human
NHERF1 PDZ 1 = target: T1, NHERF1 PDZ 1 (Homo sapiens, UniProt O14745); test: Holdup assay, NHERF1-1; format: binding
T1 construct: NHERF1-1 as the first PDZ domain of the NHERF1 protein; made in house; host or cells: E. coli
T1 sequence (O14745 14-94 limits assumed): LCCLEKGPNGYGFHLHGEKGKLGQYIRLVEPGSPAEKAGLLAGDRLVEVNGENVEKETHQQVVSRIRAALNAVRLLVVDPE
Method: (§1) The holdup assay was performed on a Tecan freedom Evo200 robot with 384-well plates in singlicate for the three 11-mer PTEN variants and the 13-mer PTEN peptide as described in [31, 32]. Briefly, prior to interaction assay, 2.5 μL of streptavidin resin was saturated in each well with 20 μL of biotinylated PBM peptides (42 μM) and then washed twice with an excess of free biotin, while the reference resin was incubated only with biotin. Right before the holdup experiment, the PDZ library was spiked with an internal standard of lysozyme. Then, the biotin- or PBM-saturated resin was incubated, each in a distinct well of a 384-well plate, with complete cell lysates diluted so that the concentration of the tag-PDZ present in the crude extract is adjusted at 4 μM. After a sufficient time to reach complex equilibrium (15 min.), a fast and mild filtration step is performed and the tag-PDZ concentrations were measured by capillary electrophoresis instrument (LabChip GXII, PerkinElmer, Massachusets, USA). Standard markers were used to convert migration time into molecular weight on the LabChip software and inappropriate molecular weight markers were corrected or excluded.
(§2) For filtered data, the BI was extracted with the following equation (Eq 1) that estimates the depleted fraction after superimposition of the sample and reference electropherograms: BI=Iref−Ilig/Iref (1) where Iref and Ilig are the intensities of the tag-PDZ peaks measured, for each PDZ domain/PBM peptide interaction pair, in the biotin reference and the PBM electropherograms, respectively.
(§3) BIs were transformed into dissociation constants (KD) using the following formula: KD=([PDZtot]−BI·[PDZtot])·([PBMtot]−BI·[PDZtot])/BI·[PDZtot] (2) where [PDZtot] and [PBMtot] correspond to the total concentrations of the PDZ domain (usually around 4 μM) and the PBM peptide used during the assay. Since the PBMtot concentration in the resin during the holdup assay parameter may differ from one peptide to another and remains unknown, it is impossible to directly convert BI values into KD constants. We systematically determined the KD constants for a subset of PDZ/PBM pairs by competitive FP. […] For each PBM, the average peptide concentration was calculated after outlier rejection based on the absolute distances from the median as compared to three times the standard deviation (3σ rule), with never more than 2 values rejected.

MAST1 PDZ 1 = target: T2, MAST1 PDZ 1 (Homo sapiens, UniProt Q9Y2H9); test: Holdup assay, MAST1-1; format: binding
T2 construct: made in house; host or cells: E. coli
T2 sequence (Q9Y2H9 967-1055 limits assumed): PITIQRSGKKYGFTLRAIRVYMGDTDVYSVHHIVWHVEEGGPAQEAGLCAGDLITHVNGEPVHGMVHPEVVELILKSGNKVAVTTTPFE
Method: as §1, §2, §3

DFNB31-1 = target: T3, DFNB31-1 (Homo sapiens, UniProt Q9P202); test: Holdup assay, DFNB31-1; format: binding
T3 sequence (Q9P202 140-223): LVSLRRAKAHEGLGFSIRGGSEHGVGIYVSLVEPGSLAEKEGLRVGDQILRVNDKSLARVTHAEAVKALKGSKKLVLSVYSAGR

MLLT4-1 = test: Holdup assay, MLLT4-1; format: binding, human
LIMK2-1 = target: T4, LIMK2-1 (Homo sapiens, UniProt P53671); test: Holdup assay, LIMK2-1; format: binding
T4 sequence (P53671 152-239): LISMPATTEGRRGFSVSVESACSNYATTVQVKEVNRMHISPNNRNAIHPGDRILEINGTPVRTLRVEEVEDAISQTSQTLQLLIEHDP

SNX27 PDZ 1 = target: T5, SNX27 PDZ 1 (Homo sapiens, UniProt Q96L92); test: Holdup assay, SNX27-1; format: binding
T5 construct: made in house; host or cells: E. coli
Method: as §1, §2, §3

IL16-4 = test: Holdup assay, IL16-4; format: binding, human
PARD3 PDZ 3 = target: T6, PARD3 PDZ 3 (Homo sapiens, UniProt Q8TEW0); test: Holdup assay, PARD3-3; format: binding
T6 construct: made in house; host or cells: E. coli
T6 sequence (Q8TEW0 590-677 limits assumed): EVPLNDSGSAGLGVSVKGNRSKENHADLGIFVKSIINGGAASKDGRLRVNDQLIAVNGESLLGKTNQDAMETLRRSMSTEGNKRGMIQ
Method: as §1, §2, §3

INADL-1 = test: Holdup assay, INADL-1; format: binding, human
DLG2-2 = DLG2-2 (Homo sapiens, UniProt Q15700); test: Holdup assay, DLG2-2; format: binding
Sequence of DLG2-2 (Q15700 193-280): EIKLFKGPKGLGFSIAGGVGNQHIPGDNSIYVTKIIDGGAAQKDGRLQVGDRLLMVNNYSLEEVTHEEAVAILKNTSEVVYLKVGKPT

DVL1-1 = test: Holdup assay, DVL1-1; format: binding, human
GRIP2-7 = test: Holdup assay, GRIP2-7; format: binding, human
HTRA1-1 = target: T7, HTRA1-1 (Homo sapiens, UniProt Q92743); test: Holdup assay, HTRA1-1; format: binding
T7 construct: His-MBP or His-TRX (N); made in house; host or cells: E. coli
T7 sequence (Q92743 365-467 limits assumed): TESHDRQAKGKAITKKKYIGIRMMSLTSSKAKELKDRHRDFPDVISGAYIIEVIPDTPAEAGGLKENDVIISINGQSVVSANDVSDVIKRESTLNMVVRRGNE
Method: as §1, §2

GOPC-1 = GOPC-1 (Homo sapiens, UniProt Q9HD26); test: Holdup assay, GOPC-1; format: binding
IL16-3 = test: Holdup assay, IL16-3; format: binding, human
MAGI3 PDZ 2 = target: T8, MAGI3 PDZ 2 (Homo sapiens, UniProt Q5TCQ9); test: Holdup assay, MAGI3-2; format: binding; conditions: MAGI3-2
T8 construct: made in house; host or cells: E. coli
T8 sequence (Q5TCQ9 410-492 limits assumed): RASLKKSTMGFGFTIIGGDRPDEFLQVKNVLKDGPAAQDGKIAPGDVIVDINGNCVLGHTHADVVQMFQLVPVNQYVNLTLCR
Method: as §1, §2, §3

FRMPD1-1 = test: Holdup assay, FRMPD1-1; format: binding, human
LIN7C-1 = test: Holdup assay, LIN7C-1; format: binding, human

CC[C@H](C)[C@H](NC(=O)[C@H](CCC(N)=O)NC(=O)[C@@H](NC(=O)[C@H](Cc1c[nH]cn1)NC(=O)[C@H](CCC(N)=O)NC(=O)[C@H](CC(=O)O)NC(=O)[C@H](CCC(=O)O)NC(=O)[C@H](CC(=O)O)NC(=O)CCC(=O)NCCCOCCOCCOCCCNC(=O)CCCC[C@@H]1SC[C@@H]2NC(=O)N[C@@H]21)[C@@H](C)O)C(=O)N[C@H](C(=O)N[C@@H](CCCNC(=N)N)C(=O)N[C@H](C(=O)O)C(C)C)[C@@H](C)O [PTEN_KR] ({X1-Suc}-DEDQHTQITRV-OH)
BI (MAGI1-5): 0.619 | Kd (MAGI1-5): 13.9 µM | BI (MAGI3-4): -0.011 | LogKD (MAGI3-4): 3.655 | BI (DLG1-3): 0.077 | LogKD (DLG1-3): 3.655 | BI (IL16-2): -0.114 | LogKD (IL16-2): 3.655 | Kd (NHERF1 PDZ 1): 3.45 µM | BI (NHERF1 PDZ 1; PDZ domain NHERF1-1): 0.862 | Kd (MAST1 PDZ 1): 32.2 µM | BI (MAST1 PDZ 1; MAST1-1): 0.42 | BI (DFNB31-1): 0.118 | BI (MLLT4-1): 0.021 | LogKD (MLLT4-1): 3.655 | BI (LIMK2-1): -0.042 | LogKD (LIMK2-1): 3.655 | Kd (SNX27 PDZ 1): 8.32 µM | BI (SNX27 PDZ 1; PDZ domain SNX27-1): 0.67 | BI (IL16-4): 0.002 | LogKD (IL16-4): 3.655 | KD (affinity measured by holdup) (PARD3 PDZ 3; PARD3 PDZ 3, singlicate, BI converted to KD, tag-PDZ 4 μM, 15 min, nd: not detected in the holdup assay): 56 µM | BI (PARD3 PDZ 3; PDZ domain PARD3-3): 0.044 | BI (INADL-1): 0.058 | LogKD (INADL-1): 3.655 | BI (DLG2-2): 0.312 | Kd (DLG2-2): 52.4 µM | BI (DVL1-1): -0.056 | LogKD (DVL1-1): 3.655 | BI (GRIP2-7): -0.066 | LogKD (GRIP2-7): 3.655 | Kd (HTRA1-1): 40.4 µM | BI (HTRA1-1; HTRA1-1): 0.368 | BI (GOPC-1): 0.45 | Kd (GOPC-1): 28.4 µM | BI (IL16-3): -0.005 | LogKD (IL16-3): 3.655 | BI (MAGI3 PDZ 2): 0.445 | BI (FRMPD1-1): -0.047 | LogKD (FRMPD1-1): 3.655 | BI (LIN7C-1): -0.071 | LogKD (LIN7C-1): 3.655
